Measured values published in PMC9467586, “Development of novel 9-O-substituted-13-octylberberine derivatives as potential anti-hepatocellular carcinoma agents” (Journal of Enzyme Inhibition and Medicinal Chemistry, 2022).
Read-outs that look alike come from different tables or passages of the source. Values belong to the compound of their own block, whether it stands above or below them.

Assays:
[1] = tested on: HepG2 cells; assay: In vitro antiproliferative MTT assay, HepG2 cells; assay type: cell-based, human; conditions: 72 h, mean ± SD (n = 3), read-out: IC50 (antiproliferative activity against HepG2 cells)
Protocol: (§1) HepG2, Sk-Hep-1, Huh-7, Hep3B and L-02 cells were purchased from Nanjing Key Gen Biotech Co. Ltd. (Nanjing, China). The cytotoxicity of test compounds was determined using an MTT assay. Briefly, the cell lines were incubated at 37 °C in a humidified 5% CO2 incubator for 24 h in 96-microwell plates. After medium removal, 100 μL of culture medium with 0.1% DMSO containing test compounds at different concentrations was added to each well and incubated at 37 °C for another 72 h. The MTT (5 mg/mL in PBS) was added and incubated for another 4 h, the optical density was detected with a microplate reader at 490 nm. The IC50 values were calculated according to the dose-dependent curves. All the experiments were repeated in at least three independent experiments.

[2] = Aqueous solubility measurement by HPLC; assay type: physicochemical; conditions: 25 °C
Protocol: Berberine, 3c and 6k (5 mg) were dissolved in 1 ml PBS (50 mM, pH 7.4) at 25 °C. The suspension was sonicated for 30 min and then centrifuged at 15000 g for 5 min. The supernatant was filtered through a PTFE filter (0.2 μm) slowly. Then 10 μL filtered solution was injected into the HPLC system (Shimadzu DGU-20A3R) on a Shimadzu-GL WondaSil C18-WR column and quantified using the standard curves made by the corresponding known concentrations of berberine, 3c and 6k. The eluent was methanol/water (65/35, v/v) at a flow rate of 1.0 ml/min with the detection wavelength at 254 nm.

[3] = LWP coefficient (log D) measurement, shake flask; assay type: physicochemical
Protocol: Berberine, 3c and 6k of 1 mg were dissolved in three centrifugal tubes (5 ml) containing phosphate buffer (pH 7.4)-saturated 1-octanol solution (2 mL), followed by the addition of 1-octanol saturated PBS (2 mL). Each tube was vigorously mixed for 1 min and then shaken for 6 h at a speed of 1000 rpm at 37 °C. The mixtures were then centrifuged. 1 mL of 1-octanol phase and 1 mL of buffer were separately collected. Each phase was diluted to a suitable concentration and analysed by HPLC (Shimadzu DGU-20A3R) on a Shimadzu-GL WondaSil C18-WR column (λ = 254 nm) with an eluent of methanol/water (65/35, v/v, 1.0 ml/min). The log D value for each compound was calculated from the ratio of the peak areas using the following equation: Log D = log (Areaoct × x/Areabuf × y). x, y is the dilution factor.

[4] = tested on: Huh-7 cells; assay: In vitro antiproliferative MTT assay, Huh-7 cells; assay type: cell-based, human; conditions: 72 h, mean ± SD (n = 3)
Protocol: as §1

[5] = tested on: normal hepatocytes L-02; assay: MTT cytotoxicity assay, normal hepatocytes L-02; assay type: cell-based; conditions: normal hepatocytes L-02, MTT, 72 h, mean ± SD (n = 3)
Protocol: as §1

[6] = tested on: Hep3B cells; assay: In vitro antiproliferative MTT assay, Hep3B cells; assay type: cell-based, human; conditions: 72 h, mean ± SD (n = 3)
Protocol: as §1

[7] = tested on: Sk-Hep-1 cells; assay: In vitro antiproliferative MTT assay, Sk-Hep-1 cells; assay type: cell-based, human; conditions: mean ± SD (n = 3)
Protocol: as §1

[8] = tested on: H22 liver cancer xenograft; assay: In vivo anti-HCC assay, H22 liver cancer xenograft mouse model; design: species or system mice; conditions: intravenous, once a day for 21 days, H22 mice
Protocol: Five-week-old male Institute of Cancer Research (ICR) mice were purchased from Shanghai SLAC Laboratory Animals Co. Ltd. Briefly, a total of 1 × 10^6 H22 cells were subcutaneously inoculated into the right flank of ICR mice according to protocols of tumour transplant research, to initiate tumour growth. After incubation for one day, mice were weighed and randomly divided into 5 groups of 8 animals. The groups were administered berberine (30 mg/kg) and 6k (15 or 30 mg/kg) in a vehicle of 10% DMF/2% Tween 80/88% saline, respectively. Vehicle and cyclophosphamide (20 mg/kg) were employed as negative and positive controls, respectively. Treatments were performed by intravenous injection once per day for a total of 21 consecutive days. Body weights and tumour volumes were measured every 2 days. The mice were sacrificed after the treatments, and the tumours were excised and weighed. The tumour volume and inhibition rate (w/w) were calculated as follows: tumour volume = L × W^2/2, where L is the length and W is the width; tumour inhibitory ratio (%) = (1-average tumour weight of treated group/average tumour weight of control group) × 100%. All procedures were performed following institutional approval in accordance with the NIH Guide for the Care and Use of Laboratory Animals.

[9] = tested on: c-MYC G4 DNA (FPu18T); assay: FRET-melting assay, FPu18T (c-MYC G4 DNA model); conditions: 2 μM compounds
[10] = tested on: duplex DNA (F10T); assay: FRET-melting assay, F10T (duplex DNA model); assay type: binding; conditions: 2 μM compounds
[11] = tested on: human hepatoma cells including HepG2, Sk-Hep-1 and Huh-7 cells; assay: Antiproliferative MTT assay, summary over human hepatoma cells; assay type: cell-based; conditions: read-out: IC50 values against human hepatoma cells (span over cell lines)
Protocol: as §1

Compound: N.N.[Cl][Pt][Cl] [Cisplatin]
IC50 [4]: 3.03 ± 0.63 µM | IC50 [5]: 6.79 ± 0.46 µM | IC50 [1]: 6.87 ± 0.31 µM | IC50 [6]: 11.2 ± 0.51 µM | IC50 ([7]; 72 h): 6.52 ± 0.42 µM

Compound: O=P1(N(CCCl)CCCl)NCCCO1 (centres unmarked) [CP, cyclophosphamide, reference compound]
tumour inhibitory rate (TIR, w/w) ([8]; 20 mg/kg): 64.2%

Compound: COc1ccc2cc3[n+](cc2c1OC)CCc1cc2c(cc1-3)OCO2 [Berberine]
ΔTm(A) = Tm(FPu18T + compound) - Tm(FPu18T) [9]: 1.2 °C | IC50 ([4]; Homo sapiens): > 50 µM | IC50 ([5]; Hepatocyte): > 50 µM | IC50 ([1]; Homo sapiens): > 50 µM | tumour inhibitory rate (TIR, w/w) ([8]; 30 mg/kg): 47.3% | solubility at 30 min ([2]; PBS (50 mM, aqueous buffer, thermodynamic from solid), PBS (pH 7.4), HPLC, read-out: Solubility): 1360 µg/mL | IC50 ([6]; Homo sapiens): > 50 µM | ΔTm(B) = Tm(F10T + compound) - Tm(F10T) [10]: 2.0 °C | IC50 [11]: > 50 µM | IC50 ([7]; Homo sapiens, SK-HEP1, 72 h): > 50 µM | logD ([3]; 1-octanol/phosphate buffer (PBS), 1-octanol/PBS pH 7.4, shake flask, 37 °C, read-out: Log D): -0.98

Compound: CCCCCCCCc1c2[n+](cc3c(OCCCN4CCCC4)c(OC)ccc13)CCc1cc3c(cc1-2)OCO3.[Br-] [Compound 6b, 10-Methoxy-13-octyl-9–(3-(pyrrolidin-1-yl)propoxy)-5,6-dihydro-[1,3]dioxolo[4,5-g]isoquinolino[3,2-a]isoquinolin-7-ium bromide]
IC50 ([1]; Homo sapiens): 7.75 ± 0.83 µM | melting point: 135 to 137 °C

Further compounds by falling IC50 ([1]; Homo sapiens), results first:

IC50 ([1]; Homo sapiens): 6.82 ± 0.51 µM | melting point: 142 to 144 °C
Compound: CCCCCCCCc1c2[n+](cc3c(OCCCN(CC)CC)c(OC)ccc13)CCc1cc3c(cc1-2)OCO3.[Br-] [Compound 6a, 9–(3-(Diethylamino)propoxy)-10-methoxy-13-octyl-5,6-dihydro-[1,3]dioxolo[4,5-g]isoquinolino[3,2-a]isoquinolin-7-ium bromide]

IC50 ([1]; Homo sapiens): 4.12 ± 0.26 µM | solubility at 30 min ([2]; pH 7.4, aqueous buffer, thermodynamic from solid): 1120 µg/mL | logD ([3]; pH 7.4): 2.41
Compound: CCCCCCCCc1c2[n+](cc3c(OC)c(OC)ccc13)CCc1cc3c(cc1-2)OCO3.[Cl-] [Compound 3c, 9,10-Dimethoxy-13-octyl-5,6-dihydro-[1,3]dioxolo[4,5-g]isoquinolino[3,2-a]isoquinolin-7-ium chloride]

IC50 ([1]; Homo sapiens): 3.91 ± 0.36 µM | melting point: 126 to 128 °C
Compound: CCCCCCCCc1c2[n+](cc3c(OCCCCCCN4CCCC4)c(OC)ccc13)CCc1cc3c(cc1-2)OCO3.[Br-] [Compound 6e, 10-Methoxy-13-octyl-9-((6-(pyrrolidin-1-yl)hexyl)oxy)-5,6-dihydro-[1,3]dioxolo[4,5-g]isoquinolino[3,2-a]isoquinolin-7-ium bromide]

IC50 ([1]; Homo sapiens): 1.27 ± 0.25 µM | melting point: 164 to 166 °C
Compound: CCCCCCCCc1c2[n+](cc3c(OCCCCCCN4CCOCC4)c(OC)ccc13)CCc1cc3c(cc1-2)OCO3.[Br-] [Compound 6f, 10-Methoxy-9-((6-morpholinohexyl)oxy)-13-octyl-5,6-dihydro-[1,3]dioxolo[4,5-g]isoquinolino[3,2-a]isoquinolin-7-ium bromide]

IC50 ([1]; Homo sapiens): 1.08 ± 0.1 µM | melting point: 136 to 138 °C
Compound: CCCCCCCCc1c2[n+](cc3c(OCCCCCCCCCCN4CCN(C)CC4)c(OC)ccc13)CCc1cc3c(cc1-2)OCO3.[Br-] [Compound 6n, 10-Methoxy-9-((10–(4-methylpiperazin-1-yl)decyl)oxy)-13-octyl-5,6-dihydro-[1,3]dioxolo[4,5-g]isoquinolino[3,2-a]isoquinolin-7-ium bromide]

IC50 ([1]; Homo sapiens): 1 ± 0.1 µM | melting point: 144 to 146 °C
Compound: CCCCCCCCc1c2[n+](cc3c(OCCCCCCCCN4CCCCC4)c(OC)ccc13)CCc1cc3c(cc1-2)OCO3.[Br-] [Compound 6j, 10-Methoxy-13-octyl-9-((8-(piperidin-1-yl)octyl)oxy)-5,6-dihydro-[1,3]dioxolo[4,5-g]isoquinolino[3,2-a]isoquinolin-7-ium bromide]
